Where two headings read alike, the source gives them in different places.
What was measured:
TNFα = assay: IRAK4 Monocyte TNFα Cell Based Assay; design: species or system human; conditions: Homo sapiens, Monocyte, human monocytes
Method: IRAK4 Monocyte TNFα Cell Based Assay Procedure:
The cell suspension was then plated at a density of 5,000 cells/well onto black 384 well Greiner clear bottom plates. Plates were pre-spotted with test compounds and serially diluted in DMSO where 40 nL/well were delivered using the Echo 550 acoustic liquid dispenser (Labcyte®) for a final DMSO concentration of 0.1%. Plated cells were treated with compound for 1 hour at 37° C. Cells were then stimulated with 50 pg/ml of LPS (Sigma) excluding outside columns of plate used for unstimulated cell control wells. Cells were incubated for an additional 4 hours at 37° C. Cells were then spun out of the media and 5μl of sample were taken and analyzed for total TNFα content using the TR-FRET Human TNFα detection system (CisBio). This system utilizes two labeled antibodies (cryptate and XL665) that bind to two different epitopes of the TNFα molecule and produce FRET signal proportional to the concentration of TNFα in the sample. Detection antibodies are mixed 50:50 and 5 μL were dispensed into each well. Plates were covered with clear seals and incubated at room temp overnight. […] Percent of control was calculated as follows: % Control=100×(RatioSample−Ratio0% Stimulation)/(Ratio100% Stimulation−Ratio0% Stimulation) where unstimulated cells (0% stimulation) were the negative control and stimulated cells (100% stimulation) were used as the positive control.

IRAK4 enzyme = IRAK4 enzyme (Homo sapiens (Human), UniProt Q9NWZ3); assay: IRAK4 Biochemical Assay (TR-FRET, STK1 KinEASE)
Sequence of IRAK4 enzyme (Q9NWZ3 whole entry): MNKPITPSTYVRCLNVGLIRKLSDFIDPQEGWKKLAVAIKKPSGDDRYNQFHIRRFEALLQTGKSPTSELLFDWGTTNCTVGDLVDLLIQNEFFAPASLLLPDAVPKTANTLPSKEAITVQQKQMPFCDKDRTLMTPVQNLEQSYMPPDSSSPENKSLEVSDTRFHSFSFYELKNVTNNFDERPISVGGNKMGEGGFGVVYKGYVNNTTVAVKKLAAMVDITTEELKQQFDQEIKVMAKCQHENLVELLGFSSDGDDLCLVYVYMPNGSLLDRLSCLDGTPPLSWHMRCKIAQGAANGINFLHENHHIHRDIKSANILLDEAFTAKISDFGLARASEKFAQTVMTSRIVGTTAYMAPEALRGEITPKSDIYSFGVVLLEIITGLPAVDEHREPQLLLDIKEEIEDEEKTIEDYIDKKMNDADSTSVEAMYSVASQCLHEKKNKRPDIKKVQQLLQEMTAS
Method: IRAK4 enzyme (Carna Biosciences, Chuo-ku, Kobe, Japan) activity was measured by detecting phosphorylated peptide substrate formation using an antibody against the phosphorylated peptide substrate. This is a time-resolved fluorescence resonance energy transfer (TR-FRET) immunoassay, based on the STK1 KinEASE Assay (Cisbio, Bedford, Mass.). The assay was designed as a simple two-step, endpoint assay (a 5 μl enzyme reaction followed by 5 μl stop and detect Solution) performed in ProxiPlate-384 Plus plates (Perkin Elmer, Waltham, Mass.). […] Compounds diluted in DMSO were spotted into 384 well plates using a Labcyte® Echo 550 Liquid Handling System prior to addition of IRAK4 enzyme and peptide substrate. Reaction solutions were delivered using a Multi-Flo (Bio-Tek Instruments). The enzyme and peptide solution was incubated with compound for 15 minutes at room temp before the reaction was initiated by the addition of ATP. The standard 5 μl reaction mixture contained 500 μM ATP, 2 μM peptide (STK1 Peptide), 0.75 nM of IRAK4 in reaction buffer (50 mM HEPES, pH 7.0, 0.02% NaN3, 0.01% BSA, 0.1 mM Orthovanadate, 5 mM MgCl2, 0.025% NP-40, 1 mM DTT). After 120 min of incubation at room temperature, 5 μl of Stop and Detect Solution (1:100 Cryptate labeled anti-phosphorylated peptide antibody solution and 125 nM Tracer in a 50 mM HEPES pH 7.0 detection buffer containing sufficient EDTA) was added. The plate was then further incubated for 60 minutes at room temperature and read on Envision 2103 Multilabeled reader (PerkinElmer) with excitation/emission/FRET emission at 340 nm/615 nm/665 nm, respectively. Fluorescence intensities at 615 nm and 665 nm emission wavelengths were expressed as a ratio (665 nm/615 nm). Percentage of inhibition was calculated as below: % Inhibition=100×(RatioSample−Ratio0% Inhibition)/(Ratio100% Inhibition−Ratio0% Inhibition)
The 0% inhibition value comes from control wells lacking inhibitor.

[1] = second part of Table 2 (compounds 33-343), unit inferred, read-out: EC50MONO TNF HTRF

Row | Structure (SMILES) | EC50 (TNFα; [1]) [nM] | IC50 (IRAK4 enzyme) [nM] | EC50 (TNFα; LPS-stimulated, compounds 1-32, read-out: EC50 TNF) [nM] | IC50 (IRAK4 enzyme; compounds 1-32, read-out: IC50 HTRF) [nM]
1 | CC(=O)NC12CCC(c3nnc(-c4cnc(-c5ccc6cc(C#N)cnn56)cc4NC4COC4)s3)(C1)C2 [Compound 334, N-(4-(5-(6-(3-cyanopyrrolo[1,2-b]pyridazin-7-yl)-4-(oxetan-3-ylamino)pyridin-3-yl)-1,3,4-thiadiazol-2-yl)bicyclo[2.1.1]hexan-1-yl)acetamide] | 98.9 | 2.41 |  | 
2 | CC(C)(O)C(=O)NC12CCC(c3nnc(-c4cnc(-c5ccc6cc(C#N)cnn56)cc4NC4COC4)s3)(C1)C2 [Compound 335, N-(4-(5-(6-(3-cyanopyrrolo[1,2-b]pyridazin-7-yl)-4-(oxetan-3-ylamino)pyridin-3-yl)-1,3,4-thiadiazol-2-yl)bicyclo[2.1.1]hexan-1-yl)-2-hydroxy-2-methylpropanamide] | 48.9 | 0.64 |  | 
3 | CC(C)Nc1cc(-c2ccc3cc(C#N)cnn23)ncc1-c1nnc(C2CCOCC2)s1 [Example 32, 7-(4-(isopropylamino)-5-(5-(tetrahydro-2H-pyran-4-yl)-1,3,4-thiadiazol-2-yl)pyridin-2-yl)pyrrolo[1,2-b]pyridazine-3-carbonitrile] |  |  | 211 | < 1
4 | CC(=O)NC[C@H]1CCCN1C(=O)c1nnc(-c2cnc(-c3ccc4cc(C#N)cnn34)cc2NC(C)C)s1 [Example 42, (R)-N-((1-(5-(6-(3-cyanopyrrolo[1,2-b]pyridazin-7-yl)-4-(isopropylamino)pyridin-3-yl)-1,3,4-thiadiazole-2-carbonyl)pyrrolidin-2-yl)methyl)acetamide] | 35.7 | 1.5 |  | 
5 | COC(=O)N[C@H]1CCN(C(=O)c2nnc(-c3cnc(-c4ccc5cc(C#N)cnn45)cc3NC(C)C)s2)C1 [Example 43, methyl (S)-(1-(5-(6-(3-cyanopyrrolo[1,2-b]pyridazin-7-yl)-4-(isopropylamino)pyridin-3-yl)-1,3,4-thiadiazole-2-carbonyl)pyrrolidin-3-yl)carbamate] | 21.9 | 0.72 |  | 
6 | CC(C)Nc1cc(-c2ccc3cc(C#N)cnn23)ncc1-c1nnc(C(=O)N2CC[C@@H](NC(=O)C3CC3)C2)s1 [Example 47, (R)-N-(1-(5-(6-(3-cyanopyrrolo[1,2-b]pyridazin-7-yl)-4-(isopropylamino)pyridin-3-yl)-1,3,4-thiadiazole-2-carbonyl)pyrrolidin-3-yl)cyclopropanecarboxamide] | 5680 | 1.42 |  | 
7 | CC(=O)N1CCC2(CC1)CN(c1nnc(-c3cnc(-c4ccc5cc(C#N)cnn45)cc3NC(C)C)s1)C2 [Example 67, 7-(5-(5-(7-acetyl-2,7-diazaspiro[3.5]nonan-2-yl)-1,3,4-thiadiazol-2-yl)-4-(isopropylamino)pyridin-2-yl)pyrrolo[1,2-b]pyridazine-3-carbonitrile] | 10.4 | 0.59 |  | 
8 | CC(=O)N[C@@H]1C[C@H]2C[C@@H]1CN2c1nnc(-c2cnc(-c3ccc4cc(C#N)cnn34)cc2NC(C)C)s1 [Example 73, N-((1R,4R,5R)-2-(5-(6-(3-cyanopyrrolo[1,2-b]pyridazin-7-yl)-4-(isopropylamino)pyridin-3-yl)-1,3,4-thiadiazol-2-yl)-2-azabicyclo[2.2.1]heptan-5-yl)acetamide] | 64.1 | 0.61 |  | 
9 | CC(=O)N1CCC2(CC1)CN(c1nnc(-c3cnc(-c4ccc5cc(C#N)cnn45)cc3NC3COC3)s1)C2 [Example 75, 7-(5-(5-(7-acetyl-2,7-diazaspiro[3.5]nonan-2-yl)-1,3,4-thiadiazol-2-yl)-4-(oxetan-3-ylamino)pyridin-2-yl)pyrrolo[1,2-b]pyridazine-3-carbonitrile] | 3.2 | 0.24 |  | 
10 | CC(=O)N1CCC2(CC1)CN(c1nnc(-c3cnc(-c4ccc5cc(C#N)cnn45)cc3NC3CCOCC3)s1)C2 [Example 76, 7-(5-(5-(7-acetyl-2,7-diazaspiro[3.5]nonan-2-yl)-1,3,4-thiadiazol-2-yl)-4-((tetrahydro-2H-pyran-4-yl)amino)pyridin-2-yl)pyrrolo[1,2-b]pyridazine-3-carbonitrile] | 4.4 | 0.85 |  | 
11 | CC(=O)NC1CCC2(CC1)CN(c1nnc(-c3cnc(-c4ccc5cc(C#N)cnn45)cc3N[C@H](C)C#N)s1)C2 [Example 77, (R)-N-(2-(5-(4-((1-cyanoethyl)amino)-6-(3-cyanopyrrolo[1,2-b]pyridazin-7-yl)pyridin-3-yl)-1,3,4-thiadiazol-2-yl)-2-azaspiro[3.5]nonan-7-yl)acetamide] | 3.9 | 1.06 |  | 
12 | CC(=O)NC1CCC2(CC1)CN(c1nnc(-c3cnc(-c4ccc5cc(C#N)cnn45)cc3NC3COC3)s1)C2 [Example 78, N-(2-(5-(6-(3-cyanopyrrolo[1,2-b]pyridazin-7-yl)-4-(oxetan-3-ylamino)pyridin-3-yl)-1,3,4-thiadiazol-2-yl)-2-azaspiro[3.5]nonan-7-yl)acetamide] | 8.9 | 0.85 |  | 
13 | CC(C)Nc1cc(-c2ccc3cc(C#N)cnn23)ncc1-c1nnc(C(C)(C)O)s1 [Example 80, 7-(5-(5-(2-hydroxypropan-2-yl)-1,3,4-thiadiazol-2-yl)-4-(isopropylamino)pyridin-2-yl)pyrrolo[1,2-b]pyridazine-3-carbonitrile] | 114 | 1.16 |  | 
14 | CC(C)Nc1cc(-c2ccc3cc(C#N)cnn23)ncc1-c1nnc(N2CC3(CCC(C)(O)CC3)C2)s1 [Example 82, 7-(5-(5-(7-hydroxy-7-methyl-2-azaspiro[3.5]nonan-2-yl)-1,3,4-thiadiazol-2-yl)-4-(isopropylamino)pyridin-2-yl)pyrrolo[1,2-b]pyridazine-3-carbonitrile] | 23.1 | 1.18 |  | 
15 | CC(=O)N[C@H]1CC[C@@H](c2nnc(-c3cnc(-c4ccc5cc(C#N)cnn45)cc3NC(C)C)s2)OC1 [Example 84, N-((3S,6S)-6-(5-(6-(3-cyanopyrrolo[1,2-b]pyridazin-7-yl)-4-(isopropylamino)pyridin-3-yl)-1,3,4-thiadiazol-2-yl)tetrahydro-2H-pyran-3-yl)acetamide] | 8.6 | 0.47 |  | 
16 | CC(=O)NC1CCC2(CC1)CN(c1nnc(-c3cnc(-c4ccc5cc(C#N)cnn45)cc3NC3(C)COC3)s1)C2 [Example 99, N-(2-(5-(6-(3-cyanopyrrolo[1,2-b]pyridazin-7-yl)-4-((3-methyloxetan-3-yl)amino)pyridin-3-yl)-1,3,4-thiadiazol-2-yl)-2-azaspiro[3.5]nonan-7-yl)acetamide] | 5.8 | 0.63 |  | 
17 | CC(C)Nc1cc(-c2ccc3cc(C#N)cnn23)ncc1-c1nnc(C2CCN(C3COC3)CC2)s1 [Example 138, 7-(4-(isopropylamino)-5-(5-(1-(oxetan-3-yl)piperidin-4-yl)-1,3,4-thiadiazol-2-yl)pyridin-2-yl)pyrrolo[1,2-b]pyridazine-3-carbonitrile] | 15 | 0.61 |  | 
18 | CC(C)Nc1cc(-c2ccc3cc(C#N)cnn23)ncc1-c1nnc(N2CC3CCC(C2)C3(O)C(F)(F)F)s1 (centres unmarked) [Example 159, 7-(5-(5-(8-hydroxy-8-(trifluoromethyl)-3-azabicyclo[3.2.1]octan-3-yl)-1,3,4-thiadiazol-2-yl)-4-(isopropylamino)pyridin-2-yl)pyrrolo[1,2-b]pyridazine-3-carbonitrile] | 25.7 | 6.38 |  | 
19 | CC(C)Nc1cc(-c2ccc3cc(C#N)cnn23)ncc1-c1nnc(N2CC3(CCNC3=O)C2)s1 [Example 164, 7-(4-(isopropylamino)-5-(5-(5-oxo-2,6-diazaspiro[3.4]octan-2-yl)-1,3,4-thiadiazol-2-yl)pyridin-2-yl)pyrrolo[1,2-b]pyridazine-3-carbonitrile] | 17.5 | 0.55 |  | 

Source: patent publication US11702414B2, “Thiadiazole IRAK4 inhibitors” (Gilead Sciences, Inc., priority 2018, dated 2023)
